# Measured values: patent US10548979B2, “Light-activated compositions and methods using the same” (THE REGENTS OF THE UNIVERSITY OF COLORADO, A BODY CORPORATE, priority 2015, dated 2020)
# Key:
# MDR E. coli = assay: Antibiotic IC50 measurement (Resazurin) in clinical isolates; format: cell-based, Escherichia coli; settings: 24 h growth
# Procedure: Overnight cultures of clinical isolates were diluted to a 0.5 McFarland standard in CAMHB with respective test concentration of antibiotic. Cultures were grown for 24 h at 37° C. with 225 rpm shaking. After 24 h of growth, Resazurin sodium salt (Sigma Aldrich) solution was added and the reaction was monitored for fluorescence measuring every 5 min for 4 h at 37° C. with 225 rpm shaking using 485/610 nm filters. The slope of Resazurin fluorescence was used a quantitative measure of cell metabolism. The IC50 was determined as the concentration of antibiotic which caused a 50% reduction in slope compared to the same biological replicate in no treatment.
# MDR S. typhimurium = assay: as above; format: cell-based, Salmonella typhimurium; settings: 24 h growth
# Procedure: Overnight cultures of clinical isolates were diluted to a 0.5 McFarland standard in CAMHB with respective test concentration of antibiotic. […] The slope of Resazurin fluorescence was used a quantitative measure of cell metabolism.
# ESBL K. pneumoniae = assay: Combinatorial experiments CdTe-2.4 with antibiotic, growth (optical density); format: cell-based, Klebsiella pneumoniae; settings: breakpoint amount of streptomycin, without CdTe-2.4
# Procedure: Five antibiotic concentrations were selected for each strain, so that the levels tested would be below the IC50, near the CLSI or defined breakpoint, and near the IC50. Concentrations of CdTe-2.4 were held constant for all strains at 12.5 nM, 25 nM, and 50 nM. Using these metrics, three biological replicates were tested from each strain with 15 test conditions as well as monotherapy controls and a no treatment condition. Clinical strains were diluted 1:100 from overnight into test condition and grown at 37° C. with 225 rpm. Optical density was measured every 30 min for the first 3 h and every hour subsequently until 8 h. After 8 h of growth, Resazurin sodium salt solution was added and the reaction was monitored for fluorescence measuring every 5 min for 4 h at 37° C. with 225 rpm shaking using 485/610 nm filters. The slope of Resazurin fluorescence was used a quantitative measure of cell metabolism.
SMILES,sensitivity to antibiotic (IC50 versus CLSI or breakpoint) (MDR E. coli),sensitivity to antibiotic (IC50 versus CLSI or breakpoint) (MDR S. typhimurium),effect of antibiotic alone on growth (ESBL K. pneumoniae)
O=C(N[C@H](CO)[C@H](O)c1ccc([N+](=O)[O-])cc1)C(Cl)Cl [chloramphenicol],sensitive,sensitive,
[H]/N=C(/N)N[C@H]1[C@H](O)[C@@H](O)[C@H](O[C@@H]2O[C@@H](C)[C@](O)(C=O)[C@H]2O[C@@H]2O[C@@H](CO)[C@H](O)[C@@H](O)[C@@H]2NC)[C@@H](N/C(N)=N\[H])[C@@H]1O [streptomycin],,,previously ineffective
